# Test results published in patent US20240016781A1, “TREATMENT OF KRAS MUTANT CANCERS” (MEI Pharma, Inc., priority 2020, published 2024).
# Values joined by “and” are separate entries in the source; they are usually repeats but may differ in a detail not shown here. Equal values may be shown once.
# Key:
# Assay in all cases: 72-hour CellTiter-Glo 2.0 growth inhibition screen (single agent, 9x9 combination dose matrix)
# Format in all cases: cell-based
# HPAF-II = test system: HPAF-II
# Protocol: (§1) Growth inhibition was determined using a 72-hour CellTiter-Glo®2.0 proliferation assay. Combination format was a 9×9 dose matrix. Six of the 20 cell lines received the original two combinations whilst the remaining 14 cell lines received two additional combinations resulting in four combinations in total. Results have been supplied as both Chalice Analyzer files (.mcc) and raw luminescence data.
# (§2) Cell lines that have been preserved in liquid nitrogen are thawed and expanded in growth media (see Appendix I). Once cells have reached expected doubling times, screening begins. Cells are seeded in 25 μl of growth media in black 384-well tissue culture treated plates at 500 cells per well (as noted in Analyzer). Cells are equilibrated in assay plates via centrifugation and placed at 37° C. 5% CO2 for twenty-four hours before treatment. […] Compounds are transferred to assay plates using and Echo acoustic liquid handling system. […] of each compound was added at the appropriate concentration for all combination dose points. Therefore, final assay volume would be 25.05 μl. Assay plates are incubated with compound for 3 days and are then analyzed using CellTiter-Glo 2.0. All data points are collected via automated processes and are subject to quality control and analyzed.
# (§3) If T≥V_0:100*(1−(T−V_0)/(V−V_0)) • where T is the signal measure for a test article, V is the untreated/vehicle-treated control measure, and Vo is the untreated/vehicle control measure at time zero (also colloquially referred as TO plates). This formula is derived from the Growth Inhibition calculation used in the National Cancer Institute's NCI-60 high throughput screen. For the purposes of this disclosure, all data analysis was performed in Growth Inhibition (except where noted).
# (§4) Inhibition is also provided as a measure of cell viability. […] Inhibition of 100% represents no doubling of cell numbers during the treatment window. Both cytostatic and cytotoxic treatments can yield an Inhibition percentage of 100%. Inhibition percentage is calculated as the following: […]
# (§5) The fractional inhibition for each component agent and combination point in the matrix is calculated relative to the median of all untreated/vehicle-treated control wells. The Synergy Score equation integrates the experimentally-observed activity volume at each point in the matrix in excess of a model surface numerically derived from the activity of the component agents using the Loewe model for additivity. Additional terms in the Synergy Score equation (above) are used to normalize for various dilution factors used for individual agents and to allow for comparison of synergy scores across an entire experiment. The inclusion of positive inhibition gating or an Idata multiplier removes noise near the zero-effect level, and biases results for synergistic interactions at that occur at high activity levels. Combinations with higher maximum Growth Inhibition (GI) effects or those which are synergistic at low concentrations will have higher Synergy Scores.
# (§6) The CI is a rough estimate of how much drug was needed in combination relative to the single agent doses required to achieve the chosen effect level. CI values in the range of 0.5-0.7 are typical for in vitro measurements of current clinical combinations. The CI error (σCI) is calculated using standard error propagation through the CI calculation based on the isobologram errors. In the Chalice Analyzer, the Best CI is reported from the many CI values calculated for each Icut crossing combination. Among all the measured CI values, the one with the largest single-to-noise level (1−CI)/σCI is reported as the Best CI. Best CI Level is the effect level from which the CI is calculated.
# SW837 = test system: SW837
# Protocol: as §1, §2, §3, §4, §5, §6
# AsPC-1 = test system: AsPC-1
# Protocol: as §1, §2, §3, §4, §5, §6
# NCI-H2030 = test system: NCI-H2030
# Protocol: as §1, §2, §3, §4, §5, §6
# SW48 = test system: SW48
# Protocol: as §1, §2, §3, §4, §5, §6
# SW48 KRAS (G12C/+) = test system: SW48 KRAS (G12C/+)
# Protocol: as §1, §2, §3, §4, §5, §6
# Panc 04.03 = test system: Panc 04.03
# Protocol: as §1, §2, §3, §4, §5, §6
# NCI-H358 = test system: NCI-H358
# Protocol: as §1, §2, §3, §4, §5, §6
# Gp2D = test system: Gp2D
# Protocol: as §1, §2, §3, §4, §5, §6
# HCC1171 = conditions: HCC1171, Lung; growth inhibition (GI), AUC, single agent, 72 h
# Protocol: as §1, §2, §3, §4, §5, §6
# HCC44 = conditions: HCC44, Lung; growth inhibition (GI), AUC, single agent, 72 h
# Protocol: as §1, §2, §3, §4, §5, §6
# KYSE-410 = test system: KYSE-410
# Protocol: as §1, §2, §3, §4, §5, §6
# LS-513 = test system: LS-513
# Protocol: as §1, §2, §3, §4, §5, §6
# MIA PaCa-2 = test system: MIA PaCa-2
# Protocol: as §1, §2, §3, §4, §5, §6
# TOV-21G = conditions: TOV-21G, Ovary; growth inhibition (GI), AUC, single agent, 72 h
# Protocol: as §1, §2, §3, §4, §5, §6
# NCI-H1792 = test system: NCI-H1792
# Protocol: as §1, §2, §3, §4, §5, §6
# NCI-H23 = test system: NCI-H23
# Protocol: as §1, §2, §3, §4, §5, §6
# NCI-H1373 = test system: NCI-H1373
# Protocol: as §1, §2, §3, §4, §5, §6
smiles,measurement,setting,value
C=C(F)C(=O)N1CCN(c2nc(OC[C@@H]3CCCN3C)nc3c2CCN(c2cccc4cccc(Cl)c24)C3)C[C@@H]1CC#N [MRTX849],HSA volume,HPAF-II,1.34 and 0.93
same,Response Area,"HPAF-II; HPAF-II, Pancreas, growth inhibition (GI), AUC, single agent, 72 h",2.04
same,HSA volume,SW837,6.87 and 4.50
same,Loewe Volume,SW837,5.57
same,Response Area,"SW837; SW837, Colorectal, growth inhibition (GI), AUC, single agent, 72 h",5.55
same,Loewe Volume,AsPC-1,0.71 and 0.37
same,Response Area,"AsPC-1; AsPC-1, Pancreas, growth inhibition (GI), AUC, single agent, 72 h",2.27
same,HSA volume,NCI-H2030,1.90 and 1.28
same,Response Area,"NCI-H2030; NCl-H2030, Lung, growth inhibition (GI), AUC, single agent, 72 h",2.65
same,Bliss Volume,SW48,9.14 and 4.79
same,HSA volume,SW48,3.40 and 2.30
same,Loewe Volume,SW48,6.95 and 4.49
same,Response Area,"SW48; SW48, Colorectal, growth inhibition (GI), AUC, single agent, 72 h",2.78
same,HSA volume,SW48 KRAS (G12C/+),4.53
same,Loewe Volume,SW48 KRAS (G12C/+),4.75 and 2.96
same,Response Area,"SW48 KRAS (G12C/+); SW48 KRAS (G12C/+), Colorectal, growth inhibition (GI), AUC, single agent, 72 h",2.88
same,HSA volume,Panc 04.03,0.64 and 0.37
same,Loewe Volume,Panc 04.03,3.31 and 1.76
same,Response Area,"Panc 04.03; Panc 04.03, Pancreas, growth inhibition (GI), AUC, single agent, 72 h",2.20
same,HSA volume,NCI-H358,2.90
same,Response Area,"NCI-H358; NCl-H358, Lung, growth inhibition (GI), AUC, single agent, 72 h",5.85
same,Loewe Volume,Gp2D,0.46 and 0.37
same,Response Area,"Gp2D; Gp2D, Colorectal, growth inhibition (GI), AUC, single agent, 72 h",1.86
same,Response Area,HCC1171,5.95
same,Response Area,HCC44,3.02
same,Bliss Volume,KYSE-410,7.25 and 5.69
same,HSA volume,KYSE-410,2.25 and 1.80
same,Loewe Volume,KYSE-410,6.19 and 5.14
same,Response Area,"KYSE-410; KYSE-410, Esophageal, growth inhibition (GI), AUC, single agent, 72 h",2.24
same,HSA volume,LS-513,0.51 and 0.34
same,Loewe Volume,LS-513,0.85 and 0.46
same,Response Area,"LS-513; LS-513, Colorectal, growth inhibition (GI), AUC, single agent, 72 h",1.56
same,HSA volume,MIA PaCa-2,5.25 and 2.97
same,Loewe Volume,MIA PaCa-2,4.29 and 2.30
same,Response Area,TOV-21G,2.28
same,HSA volume,NCI-H1792,4.71 and 3.40
same,Loewe Volume,NCI-H1792,5.13 and 3.37
same,Response Area,"NCI-H1792; NCl-H1792, Lung, growth inhibition (GI), AUC, single agent, 72 h",3.02
same,HSA volume,NCI-H23,5.10 and 2.97
same,Loewe Volume,NCI-H23,4.80 and 2.46
same,Response Area,"NCI-H23; NCl-H23, Lung, growth inhibition (GI), AUC, single agent, 72 h",4.15
same,HSA volume,NCI-H1373,2.06 and 1.03
same,Response Area,"NCI-H1373; NCl-H1373, Lung, growth inhibition (GI), AUC, single agent, 72 h",4.82
